In general, IC50 refers to the concentration needed to halve the response being measured. Low values mean greater potency, high ones weaker potency.

This is an account of results in patent US5070078A, “Antiviral compounds” (Burroughs Wellcome Co., priority 1987, dated 1991).

One data set deals with adenovirus of serotype 8. In words: anti-adenoviral activity, plaque assay in human epithelial cell line NCTC 2544 (EP). The data set is classed as cell-based, adenovirus type 8. Here is the method: The anti-adenoviral activity of Compound No. 1 referred to above was tested as follows:
(§1) Cells of human epithelial cell line NCTC 2544 (EP) were serially passaged from 75 cm^2 tissue culture flasks (Corning) at a spilt ratio of 1/20 every 7 days. The growth medium was Eagles BHK medium supplemented with 10% foetal bovine serum and contained 2.5% of 4.4% sodium bicarbonate solution together with 1% of penicillin (5000 IU ml^-1) and streptomycin (600 μg ml^-1) (Flow).
A stock of adenovirus of type 8 was prepared in 25 cm^2 tissue culture flasks. Flasks were seeded with 2×10^6 EP cells in growth medium and incubated overnight at 37° C. The medium was decanted and 1.0 ml of stock virus suspension was added to the flask. After 1.0 hr adsorption 10 ml of maintenance medium (as above but with 2% serum) was added to the flask.
The flask were incubated at 37° C. After 72 hrs the classical'bunch of grapes' cytopathic effect was visible. The flasks were then frozen and thawed 3 times to liberate the virus and stored at -70° C. Viral titres were usually of the order of 4×10^8 pfu ml^-1.
The plaque assay was performed in 50 mm diameter plastic tissue culture dishes which were initially seeded with 2×10^6 EP cells in growth medium and incubated overnight in 5% CO2 at 37° C. […]

Data set [1] is described as follows: Cytotoxicity Determination, trypan blue exclusion method. As to conditions: human, NCTC 2544 cells, read-out: 50% cell culture inhibitory concentration. It is filed as cell-based. Here is the method: as §1
Cytotoxicity was determined by means of the trypan blue exclusion method. NCTC 2544 cells were prepared in growth medium and aliquots added to […] tissue culture flasks at approximately 1×10^5 cells/ml. At 24 hours the flasks were divided and replenished with growth medium. One half of the flasks received growth medium containing 10 fold dilutions of compound thus exposing the cells to 1, 10, and 100 μM concentrations. At 24, 48, and 72 hours representative flasks were removed from the incubator and the monolayers washed to remove debris. The cells were resuspended in growth medium and aliquots mixed with an equal volume of trypan blue. Stained and unstained cells were counted in a haemocytometer. Cell counts were adjusted to cells/ml. An estimate of the growth and viability of treated and untreated cells was then made.

For the next data set, the system named is adenovirus serotype 5. Briefly: anti-adenovirus activity against serotype 5 (statement only). The data set is classed as cell-based.

Consider `Cc1cn([C@H]2C[C@H](F)[C@@H](CO)O2)c(=O)[nH]c1=O` [Compound No. 1, 2',3'-dideoxy-3'-fluorothymidine], for which the “anti-adenovirus activity (in words)” value in the data set with adenovirus of serotype 8 (serotype 8) and in the data set with adenovirus serotype 5 was “particularly high anti-adenovirus activity” each time. Further, in the data set with adenovirus of serotype 8 (unidentified adenovirus, NCTC-2544, adenovirus serotype 8, EP cells, plaque assay), the 50% inhibitory concentration (IC50) came to 0.005 µM. In data set [1], the CC50 at 72 h was found to be 38 µM.
